Measured values from patent publication US8501732B2, “Aminomethyl quinolone compounds” (Hoffmann-La Roche Inc., priority 2011, dated 2013).

Experiments:
[1] = target: JNK1 (Homo sapiens (Human), UniProt P45983); assay: In Vitro JNK1 Assay (TR-FRET, phosphorylation of GST-c-Jun); assay type: biochemical; conditions: 0.2 nM active JNK1 kinase, 26.7 nM GST-c-Jun, 2 μM ATP, 30 min at room temperature
In short: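 GST-c-Jun (residues 1-79) phosphorylation by JNK1 in 50 mM HEPES pH 7.0, MgCl2, 1 mM DTT, 0.1 mM Na3VO4, 0.2 mg/mL BSA, 30 min at room temperature. Stopped with EDTA plus anti-phospho-c-Jun antibody and read by TR-FRET 1 hr later. IC50 from percent inhibition over 10 serial dilutions.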

[2] = system: phospho(Ser63)-c-jun in HK-2 cells; assay: Cell-Based Assay for JNK Inhibitors (in-cell ELISA, phospho(Ser63)-c-jun after TNFα); conditions: HK-2 cells (human proximal tubule cells), 60 minutes compound, then 10 ng/mL TNFα for 30 minutes
In short: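 HK-2 human proximal tubule cells were seeded at 40,000 cells/well, cultured 24 h, then serum-starved 16–24 h before TNFα stimulation with compound. Phospho(Ser63)-c-jun was quantified by in-cell ELISA on fixed, permeabilised cells, using a rabbit phospho-specific primary (overnight, 4 °C) and an HRP-linked anti-rabbit secondary. Absorbance was read at 450 nm.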

Sequence of JNK1 (P45983 whole entry, the tested form may be a part): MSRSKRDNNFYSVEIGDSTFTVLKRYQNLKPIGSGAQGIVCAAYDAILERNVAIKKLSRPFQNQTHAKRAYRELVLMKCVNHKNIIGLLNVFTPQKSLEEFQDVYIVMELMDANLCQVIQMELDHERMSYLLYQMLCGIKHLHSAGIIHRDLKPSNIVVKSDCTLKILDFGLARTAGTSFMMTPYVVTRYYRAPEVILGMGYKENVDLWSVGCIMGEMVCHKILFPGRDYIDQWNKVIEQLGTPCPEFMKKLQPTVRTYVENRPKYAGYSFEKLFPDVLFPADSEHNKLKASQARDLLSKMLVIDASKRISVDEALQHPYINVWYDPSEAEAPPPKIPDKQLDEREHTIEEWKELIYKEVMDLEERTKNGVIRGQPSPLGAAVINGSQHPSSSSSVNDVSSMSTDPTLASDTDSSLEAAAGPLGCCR

IC50 [1] [nM] | EC50 [2] [nM] | Compound
56 | 12000 | O=C(NCc1cn(-c2ccccc2)c2cc(Cl)ccc2c1=O)c1ccc(N2CCS(=O)(=O)CC2)nc1 [Example I-80, N-(7-Chloro-4-oxo-1-phenyl-1,4-dihydro-quinolin-3-ylmethyl)-6-(1,1-dioxo-thiomorpholin-4-yl)-nicotinamide]
26 | 17000 | COC1CCN(c2ccc(C(=O)NCc3cn(-c4ccccc4)c4cc(Cl)ccc4c3=O)cn2)CC1 [Example I-71, 4-Methoxy-3,4,5,6-tetrahydro-2H-[1,2′]bipyridinyl-5′-carboxylic acid (7-chloro-4-oxo-1-phenyl-1,4-dihydro-quinolin-3-ylmethyl)-amide]
82 | 8000 | CN(C)C(=O)c1c(CNC(=O)c2cnc(N3CCC(CCO)CC3)s2)c(=O)c2ccc(Cl)cc2n1-c1ccccc1 [Example I-27, 7-Chloro-3-[4({2-[4-(2-hydroxy-ethyl)-piperidin-1-yl]-thiazole-5-carbonyl}-amino)-methyl]-4-oxo-1-phenyl-1,4-dihydro-quinoline-2-carboxylic acid dimethylamide]
110 | 72000 | O=C(NCc1cn(-c2ccccc2)c2cc(Cl)ccc2c1=O)c1ccc(N2CCNCC2)nc1 [Example I-85, N-(7-Chloro-4-oxo-1-phenyl-1,4-dihydro-quinolin-3-ylmethyl)-6-piperazin-1-yl-nicotinamide]
6 | 1200 | COC(=O)c1c(CNC(=O)c2ccc(N3CCOCC3)nc2)c(=O)c2ccc(Cl)cc2n1-c1ccccc1 [Example I-112, 7-Chloro-3-{[(6-morpholin-4-yl-pyridine-3-carbonyl)-amino]-methyl}-4-oxo-1-phenyl-1,4-dihydro-quinoline-2-carboxylic acid methyl ester]
81 | 12000 | O=C(NCc1cn(-c2ccccc2)c2cc(Cl)ccc2c1=O)c1ccc(N2CCN(CCO)CC2)nc1 [Example I-83, N-(7-Chloro-4-oxo-1-phenyl-1,4-dihydro-quinolin-3-ylmethyl)-6-[4-(2-hydroxy-ethyl)-piperazin-1-yl]-nicotinamide]
17 | 3800 | O=C(NCc1cn(-c2ccccc2)c2cc(Cl)ccc2c1=O)c1ccc(N2CCC(CCO)CC2)nc1 [Example I-63, 4-(2-Hydroxy-ethyl)-3,4,5,6-tetrahydro-2H-[1,2′]bipyridinyl-5′-carboxylic acid (7-chloro-4-oxo-1-phenyl-1,4-dihydro-quinolin-3-ylmethyl)-amide]
14 | 3000 | NC(=O)c1ccc(C(=O)NCc2c(-c3ncco3)n(-c3ccccc3)c3cc(Cl)ccc3c2=O)cc1 [Example I-4, N-(7-Chloro-2-oxazol-2-yl-4-oxo-1-phenyl-1,4-dihydro-quinolin-3-ylmethyl)-terephthalamide]
64 | 54000 | COc1ccc(C(=O)NCc2c(C(=O)N(C)C)n(-c3ccccc3)c3cc(Cl)ccc3c2=O)cc1 [Example I-15, 7-Chloro-3-[(4-methoxy-benzoylamino)-methyl]-4-oxo-1-phenyl-1,4-dihydro-quinoline-2-carboxylic acid dimethylamide]
11 | 3700 | CNC(=O)c1ccc(C(=O)NCc2c(C(=O)OC)n(-c3ccccc3)c3cc(Cl)ccc3c2=O)cc1 [Example I-118, 7-Chloro-3-[(4-methylcarbamoyl-benzoylamino)-methyl]-4-oxo-1-phenyl-1,4-dihydro-quinoline-2-carboxylic acid methyl ester]
47 | 15000 | Cn1cc(C(=O)NCc2c(-c3ncco3)n(-c3ccccc3)c3ncccc3c2=O)cn1 [Example I-11, 1-Methyl-1H-pyrazole-4-carboxylic acid (2-oxazol-2-yl-4-oxo-1-phenyl-1,4-dihydro-[1,8]naphthyridin-3-ylmethyl)-amide]
38 | 29000 | O=C(NCc1cn(-c2ccccc2)c2cc(Cl)ccc2c1=O)c1ccnc(N2CCCC2)c1 [Example I-32, N-(7-Chloro-4-oxo-1-phenyl-1,4-dihydro-quinolin-3-ylmethyl)-2-pyrrolidin-1-yl-isonicotinamide]
330 | 25000 | CN(C)C(=O)c1c(CNC(=O)c2ccn(Cc3ccccc3)c(=O)c2)c(=O)c2ccc(Cl)cc2n1-c1ccccc1 [Example I-22, 3-{[(1-Benzyl-2-oxo-1,2-dihydro-pyridine-4-carbonyl)-amino]-methyl}-7-chloro-4-oxo-1-phenyl-1,4-dihydro-quinoline-2-carboxylic acid dimethylamide]
7 | 2500 | O=C(NCc1c(-c2ncco2)n(-c2ccccc2)c2ncccc2c1=O)c1ccc(N2CCC(CO)CC2)nc1 [Example I-12, 4-Hydroxymethyl-3,4,5,6-tetrahydro-2H-[1,2′]bipyridinyl-5′-carboxylic acid (2-oxazol-2-yl-4-oxo-1-phenyl-1,4-dihydro-[1,8]naphthyridin-3-ylmethyl)-amide]
